Experiments:
Format in all cases: biochemical
[1] = biological target: T1, PDE4B: The catalytic domain of human PDE4B from S152-S528 (Homo sapiens, UniProt Q07343); assay: PDE4 IC50 determination by Scintillation Proximity Assay, PDE4B; settings: Table 1B, Formula I compounds; read-out: IC50 PDE4B
T1 construct: His6 (N); thrombin cleavage site (N); made in house; host or cells: E. coli
Method in brief: (§1)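 Scintillation counts reflected [^3H]AMP captured on yttrium silicate SPA beads after enzyme hydrolysed [^3H]cAMP for 30 min at 30°. PDE4B was used at 80 ng/ml and PDE4D at 4 ng/ml. IC50 values came from non-linear regression.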

PDE4D = biological target: T2, PDE4D (Homo sapiens, UniProt Q08499); assay: PDE4 IC50 determination by Scintillation Proximity Assay, PDE4D; settings: Table 1B, Formula I compounds; read-out: IC50 PDE4D
T2 construct: PDE4D: The catalytic domain of human PDE4B from S3 16-V692; His6 (N); thrombin cleavage site (N); made in house; host or cells: E. coli
T2 sequence (Q08499 380-756): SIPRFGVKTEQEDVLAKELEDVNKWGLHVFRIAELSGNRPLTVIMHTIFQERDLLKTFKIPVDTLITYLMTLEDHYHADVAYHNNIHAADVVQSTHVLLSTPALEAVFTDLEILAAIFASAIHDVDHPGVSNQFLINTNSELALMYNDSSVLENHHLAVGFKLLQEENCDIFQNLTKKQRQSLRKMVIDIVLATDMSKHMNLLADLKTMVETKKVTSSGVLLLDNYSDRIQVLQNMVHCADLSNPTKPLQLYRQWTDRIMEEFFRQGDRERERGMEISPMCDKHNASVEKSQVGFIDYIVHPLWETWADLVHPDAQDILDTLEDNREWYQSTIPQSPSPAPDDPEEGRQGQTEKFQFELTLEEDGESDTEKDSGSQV
Method in brief: as §1

[2] = biological target: T3, full-length human PDE4B2 isozyme (Homo sapiens, UniProt Q07343); assay: PDE4 IC50 determination by Scintillation Proximity Assay, PDE4B2; settings: Table 1B, Formula I compounds; read-out: IC50 PDE4B2
T3 construct: The full-length human PDE4B2 isozyme; His6 (N); TEV cleavage site (N); made in house; host or cells: baculovirus infected insect cells (unpurified lysate)
T3 sequence (Q07343 1-564 isoform Q07343-2): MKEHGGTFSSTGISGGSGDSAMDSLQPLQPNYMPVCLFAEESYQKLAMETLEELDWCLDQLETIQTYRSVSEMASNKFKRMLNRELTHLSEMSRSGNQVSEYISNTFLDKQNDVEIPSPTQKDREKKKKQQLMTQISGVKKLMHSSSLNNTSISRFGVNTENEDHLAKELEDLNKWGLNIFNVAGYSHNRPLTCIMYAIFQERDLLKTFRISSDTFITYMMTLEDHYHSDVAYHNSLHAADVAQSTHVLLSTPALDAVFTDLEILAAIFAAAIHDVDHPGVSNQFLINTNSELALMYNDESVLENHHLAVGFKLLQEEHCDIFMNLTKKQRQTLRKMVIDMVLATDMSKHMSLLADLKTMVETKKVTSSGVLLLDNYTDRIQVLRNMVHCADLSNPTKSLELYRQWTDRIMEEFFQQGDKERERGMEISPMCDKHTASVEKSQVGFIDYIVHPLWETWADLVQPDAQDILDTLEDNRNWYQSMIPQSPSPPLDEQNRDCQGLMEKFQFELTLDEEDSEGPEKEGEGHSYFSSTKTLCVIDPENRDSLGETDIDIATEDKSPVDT
Procedure: (§2) IC50s were determined by Scintillation Proximity Assay (SPA). The principle of the assay is based on the fact that cAMP, the PDE4 substrate, binds weakly to Yittrium Silicate SPA beads, whereas AMP, the product of PDE4 hydrolysis binds strongly. Thus, the extent of PDE4 hydrolysis of a sample of [^3H]cAMP can be measured because only the
(§3) [^3H]AMP produced by PDE4 hydrolysis will bind to the SPA beads and produce a scintillation signal.
(§4) PDE4 enzymes used for IC50 assays were:
PDE4B2: The full-length human PDE4B2 isozyme with an N-terminal His6 tag (SEQ ID NO: 18) and TEV cleavage site expressed in baculovirus infected insect cells. The enzyme was not purified from the cell lysates, so enzyme concentrations were not determined. Enzyme was stored in 50% glycerol at −20°.
(§5) Compounds tested (see Tables 3B, 4B and 5A for compounds and results) were 3-fold serially diluted 11 times in DMSO from a starting concentration of 4 mM or 40 μM, depending on compound potency. 1 μl of each dilution was transferred into duplicate wells of a white polystyrene 384-well assay plate (Coming #3705). In addition to the compound dilutions, each assay plate contained control wells with 1 μl of DMSO (to define 0% enzyme inhibition) or 1 μl of 200 μM roflumilast (to define 100% enzyme inhibition). Using a Beckman FX robot, 10 μl of [^3H] cAMP (Amersham TRK559) at 2 mCi/ml in assay buffer (50 mM Tris, pH 7.5; 8.3 mM MgCl; 1.7 mM EGTA; 0.01% BSA) was transferred to each assay well. Next, 10 μl of PDE4 enzyme in assay buffer was added and the plates were shaken for 30 s. at 1000 rpm to start the cAMP hydrolysis reaction. The concentrations of enzyme used were: PDE4B, 80 ng/ml; PDE4D, 4 ng/ml; PDE4B2, 2.5 μl of 50% glycerol stock/ml; PDE4D5 0.083 μl of 50% glycerol stock/ml. Assay plates were covered and incubated for 30 min. at 30°. Reactions were stopped by robotic addition of 10 μl of 5 mg/ml SPA beads (Amersham RPNQ0013) in 18 mM ZnSO4. The assay plates were covered with clear plastic film, centrifuged for 1 min. at 1000 RPM to settle the SPA beads, and counted using a Wallac TriLux scintillation counter. IC50's were calculated from the raw assay data by non-linear regression curve fitting using the Assay Explorer software package from MDL.

[3] = biological target: T4, full-length human PDE4D5 isozyme (Homo sapiens, UniProt Q08499); assay: PDE4 IC50 determination by Scintillation Proximity Assay, PDE4D5; settings: Table 1B, Formula I compounds; read-out: IC50 PDE4D5
T4 construct: The full-length human PDE4D5 isozyme; His6 (N); TEV cleavage site (N); made in house; host or cells: baculovirus infected insect cells (unpurified lysate)
T4 sequence (Q08499 1-745 isoform Q08499-6): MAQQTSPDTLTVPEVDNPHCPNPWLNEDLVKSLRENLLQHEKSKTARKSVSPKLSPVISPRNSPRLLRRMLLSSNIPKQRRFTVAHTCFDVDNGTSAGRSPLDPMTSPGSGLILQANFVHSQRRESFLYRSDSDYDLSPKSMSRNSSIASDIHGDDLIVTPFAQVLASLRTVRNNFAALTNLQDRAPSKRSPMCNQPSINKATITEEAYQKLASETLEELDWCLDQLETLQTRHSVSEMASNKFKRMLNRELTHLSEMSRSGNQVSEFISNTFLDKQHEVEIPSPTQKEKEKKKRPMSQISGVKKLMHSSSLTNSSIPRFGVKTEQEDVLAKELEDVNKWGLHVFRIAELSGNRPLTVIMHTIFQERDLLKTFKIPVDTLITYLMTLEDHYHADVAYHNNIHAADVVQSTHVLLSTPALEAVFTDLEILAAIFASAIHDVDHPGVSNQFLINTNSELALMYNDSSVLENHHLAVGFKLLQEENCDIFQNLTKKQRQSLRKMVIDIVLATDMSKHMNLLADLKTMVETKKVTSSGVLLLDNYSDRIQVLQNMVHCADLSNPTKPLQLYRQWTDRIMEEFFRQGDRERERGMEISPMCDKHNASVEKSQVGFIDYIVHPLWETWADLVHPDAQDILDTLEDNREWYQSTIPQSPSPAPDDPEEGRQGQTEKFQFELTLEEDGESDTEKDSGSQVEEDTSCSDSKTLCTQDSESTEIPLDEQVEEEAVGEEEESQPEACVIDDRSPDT
Procedure: as §2, §3, §4
PDE4D5: The full-length human PDE4D5 isozyme with an N-terminal His6 tag (SEQ ID NO: 18) and TEV cleavage site expressed in baculovirus infected insect cells. The enzyme was not purified from the cell lysates, so enzyme concentrations were not determined. Enzyme was stored in 50% glycerol at −20°.
as §5

T1 sequence (Q07343 with tags, fused parts or gaps): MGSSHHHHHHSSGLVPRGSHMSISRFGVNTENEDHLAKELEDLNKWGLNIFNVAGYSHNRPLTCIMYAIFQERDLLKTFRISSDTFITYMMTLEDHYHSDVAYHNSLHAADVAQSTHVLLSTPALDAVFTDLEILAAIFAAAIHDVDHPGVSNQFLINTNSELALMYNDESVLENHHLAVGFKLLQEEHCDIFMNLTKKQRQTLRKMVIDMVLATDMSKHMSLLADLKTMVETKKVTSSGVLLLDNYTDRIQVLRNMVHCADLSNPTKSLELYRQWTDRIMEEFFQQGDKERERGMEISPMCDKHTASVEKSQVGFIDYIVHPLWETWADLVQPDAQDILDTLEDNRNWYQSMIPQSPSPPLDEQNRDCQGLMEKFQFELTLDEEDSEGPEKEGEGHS

SMILES | IC50 [1] | IC50 (PDE4D) | IC50 [2] | IC50 [3]
CCc1ccccc1Nc1sc(C(=O)c2ccc(-c3ccccn3)s2)c(N)c1C#N [Compound 1-81, 4-Amino-2-(2-ethyl-phenylamino)-5-(5-pyridin-2-yl-thiophene-2-carbonyl)-thiophene-3-carbonitrile] | < 10 µM | < 10 µM | > 10 µM | > 10 µM
N#Cc1c(NCCN2CCCCC2)sc(C(=O)c2cc(-c3ccc(Cl)cc3Cl)no2)c1N [Compound 1-82, 4-Amino-5-[3-(2,4-dichloro-phenyl)-isoxazole-5-carbonyl]-2-(2-piperidin-1-yl-ethylamino)-thiophene-3-carbonitrile] | > 10 µM | > 10 µM | > 10 µM | > 10 µM
N#Cc1c(NCCN2CCCCC2)sc(C(=O)c2cc(-c3ccc(Cl)c(Cl)c3)no2)c1N [Compound 1-83, 4-Amino-5-[3-(3,4-dichloro-phenyl)-isoxazole-5-carbonyl]-2-(2-piperidin-1-yl-ethylamino)-thiophene-3-carbonitrile] | > 10 µM | > 10 µM | > 10 µM | > 10 µM
COc1ccc(Nc2sc(C(=O)c3ccc(C)cc3C)c(N)c2C#N)cc1 [Compound 1-85] | < 10 µM | < 10 µM | < 10 µM | < 10 µM
Cc1ccc(C(=O)c2sc(NC(=O)c3ccccc3C)c(C#N)c2N)c(C)c1 [Compound 1-86, N-[4-Amino-3-cyano-5-(2,4-dimethyl-benzoyl)-thiophen-2-yl]-2-methyl-benzamide] | < 10 µM | < 10 µM | > 10 µM | > 10 µM
Cc1ccc(C(=O)c2sc(NC3CCCC3)c(C#N)c2N)c(C)c1 [Compound 1-90, 4-Amino-2-cyclopentylamino-5-(2,4-dimethyl-benzoyl)-thiophene-3-carbonitrile] | < 10 µM | < 10 µM | < 10 µM | < 10 µM
CCc1ccccc1Nc1sc(C(=O)c2cc(OC)ccc2OC)c(N)c1C#N [Compound 1-99, 4-Amino-5-(2,5-dimethoxy-benzoyl)-2-(2-ethyl-phenylamino)-thiophene-3-carbonitrile] | < 10 µM | < 10 µM | < 10 µM | < 10 µM
Cc1c(C(=O)c2sc(Nc3cccc(C#N)c3)c(C#N)c2N)cnn1-c1ccccc1 [Compound 1-125, 4-Amino-2-(3-cyano-phenylamino)-5-(5-methyl-1-phenyl-1H-pyrazole-4-carbonyl)-thiophene-3-carbonitrile] | < 10 µM | < 10 µM | < 10 µM | < 10 µM
COc1ccc(Nc2sc(C(=O)c3c(-c4ccccc4)noc3C)c(N)c2C#N)cc1 [Compound 1-129, 4-Amino-2-(4-methoxy-phenylamino)-5-(5-methyl-3-phenyl-isoxazole-4-carbonyl)-thiophene-3-carbonitrile] | < 10 µM | < 10 µM | < 10 µM | < 10 µM
COC(=O)c1ccccc1Nc1sc(C(=O)c2c(-c3ccccc3)noc2C)c(N)c1C#N [Compound 1-130, 2-[4-Amino-3-cyano-5-(5-methyl-3-phenyl-isoxazole-4-carbonyl)-thiophen-2-ylamino]-benzoic acid methyl ester] | < 10 µM | < 10 µM | < 10 µM | < 10 µM
CCOC(=O)c1cc(C(=O)c2sc(NC3CCCC3)c(C#N)c2N)on1 [Compound 1-139, 5-(3-Amino-4-cyano-5-cyclopentylamino-thiophene-2-carbonyl)-isoxazole-3-carboxylic acid ethyl ester] | < 10 µM | < 10 µM | < 10 µM | < 10 µM
COc1ccc(C(=O)c2sc(Nc3cccc(C#N)c3)c(C#N)c2N)c(OC)c1 [Compound 1-155, 4-Amino-2-(3-cyano-phenylamino)-5-(2,4-dimethoxy-benzoyl)-thiophene-3-carbonitrile] | < 10 µM | < 10 µM | < 10 µM | < 10 µM
N#Cc1c(NC2CCCC2)sc(C(=O)c2cc(-c3ccc(Cl)c(Cl)c3)no2)c1N [Compound 1-172, 4-Amino-2-cyclopentylamino-5-[3-(3-4-dichloro-phenyl)-isoxazole-5-carbonyl]-thiophene-3-carbonitrile] | < 10 µM | > 10 µM | < 10 µM | > 10 µM
CSc1cccc(Nc2sc(C(=O)c3ccccc3Cl)c(N)c2C#N)c1 [Compound 1-180, 4-Amino-5-(2-chloro-benzoyl)-2-(3-methylsulfanyl-phenylamino)-thiophene-3-carbonitrile] | < 10 µM | < 10 µM | < 10 µM | < 10 µM
N#Cc1c(Nc2ccc(Oc3ccccc3)cc2)sc(C(=O)c2cc(-c3ccccc3)no2)c1N [Compound 1-187, 4-Amino-2-(4-phenoxy-phenylamino)-5-(3-phenyl-isoxazole-5-carbonyl)-thiophene-3-carbonitrile] | > 10 µM | > 10 µM | > 10 µM | > 10 µM
CCNC(=O)c1cc(C(=O)c2sc(NC3CCCC3)c(C#N)c2N)on1 [Compound 1-198, 5-(3-Amino-4-cyano-5-cyclopentylamino-thiophene-2-carbonyl)-isoxazole-3-carboxylic acid ethylamide] | < 10 µM | < 10 µM | > 10 µM | > 10 µM
CCOC(=O)c1c(NC2CCCC2)sc(C(=O)c2cc(-c3ccccc3)no2)c1N [Compound 1-200, 4-Amino-2-cyclopentylamino-5-(3-phenyl-isoxazole-5-carbonyl)-thiophene-3-carboxylic acid ethyl ester] | > 10 µM | < 10 µM | > 10 µM | > 10 µM
N#Cc1c(NC2CCCCC2)sc(C(=O)c2cc(-c3ccccc3)no2)c1N [Compound 1-204, 4-Amino-2-cyclohexylamino-5-(3-phenyl-isoxazole-5-carbonyl)-thiophene-3-carbonitrile] | > 10 µM | > 10 µM | > 10 µM | > 10 µM
N#Cc1c(NCC2CC2)sc(C(=O)c2cc(-c3ccccc3)no2)c1N [Compound 1-206, 4-Amino-2-(cyclopropylmethyl-amino)-5-(3-phenyl-isoxazole-5-carbonyl)-thiophene-3-carbonitrile] | > 10 µM | > 10 µM | > 10 µM | > 10 µM
N#Cc1c(Nc2ccco2)sc(C(=O)c2cc(-c3ccccc3)no2)c1N [Compound 1-208, 4-Amino-2-(furan-2-ylamino)-5-(3-phenyl-isoxazole-5-carbonyl)-thiophene-3-carbonitrile] | > 10 µM | > 10 µM | < 10 µM | > 10 µM
N#Cc1c(NC2CCCO2)sc(C(=O)c2cc(-c3ccccc3)no2)c1N (stereo not drawn) [Compound 1-210, 4-Amino-5-(3-phenyl-isoxazole-5-carbonyl)-2-(tetrahydro-furan-2-ylamino)-thiophene-3-carbonitrile] | < 10 µM | < 10 µM | < 10 µM | < 10 µM
